Our source for the IC50 values is patent publication US10906916B2, “Thienopyrimidinones as ubiquitin-specific protease 7 inhibitors” (Valo Early Discovery, Inc., priority 2015, dated 2021).

For the assay, the target named is T1, USP7 (construct USP7 (208-1102) 6*His) (Homo sapiens, UniProt Q93009).
T1 construct: USP7, construct USP7 (208-1102) 6*His, Viva Biotech; 6xHis; purchased Viva Biotech
Briefly: USP7 Assay (Ubiquitin-Rhodamine110 Assay). It is filed as biochemical. Conditions: Ub-Rh110 substrate 25 nM, enzyme 62.5 pM, 30 min preincubation; read-out: USP7_IC50. The protocol:
Each assay was performed in a final volume of 15 μL in assay buffer containing 20 mM Tris-HCl (pH 8.0, (1M Tris-HCl, pH 8.0 solution; Corning 46-031-CM)), 1 mM GSH (L-Glutathione reduced; Sigma #G4251), 0.03% BGG (0.22 μM filtered, Sigma, #G7516-25G), and 0.01% Triton X-100 (Sigma, #T9284-10L). Nanoliter quantities of either an 8-point or 10-point, 3-fold serial dilution in DMSO was pre-dispensed into assay plates (Perkin Elmer, ProxiPlate-384 F Plus, #6008269) for a final test concentration range of either 25 μM to 11 nM or 25 μM to 1.3 nM, respectively. The final concentration of the enzyme (USP7, construct USP7 (208-1102) 6*His, Viva Biotech) in the assay was 62.5 pM. Final substrate (Ub-Rh110; Ubiquitin-Rhodamine 110, R&D Systems #U-555) concentration was 25 nM with [Ub-Rh110]<<Km. 5 μL of 2× enzyme was added to assay plates (pre-stamped with compound) preincubated with USP7 for 30 min and then 5 μL of 2× Ub-Rh110 was added to assay plates. Plates were incubated stacked for 20 min at room temperature before addition of 5 μL, of stop solution (final concentration of 1.0 mM citric acid in assay buffer (Sigma, #251275-500G)). Fluorescence was read on the Envision (Excitation at 485 nm and Emission at 535 nm; Perkin Elmer) or on the PheraSTAR (Excitation at 485 nm and Emission at 535 nm; BMG Labtech).
Data from USP7 Assay was reported as percent inhibition (inh) compared with control wells based on the following equation: % inh=1−((FLU−AveLow)/(AveHigh−AveLow)) where FLU=measured Fluorescence; AveLow=average Fluorescence of no enzyme control (n=16); and AveHigh=average Fluorescence of DMSO control (n=16). IC50 values were determined by curve fitting of the standard 4 parameter logistic fitting algorithm included in the Activity Base software package: IDBS XE Designer Model205. Data is fitted using the Levenburg Marquardt algorithm.

Some results are limits rather than exact numbers.

T1 sequence (Q93009 208-1102): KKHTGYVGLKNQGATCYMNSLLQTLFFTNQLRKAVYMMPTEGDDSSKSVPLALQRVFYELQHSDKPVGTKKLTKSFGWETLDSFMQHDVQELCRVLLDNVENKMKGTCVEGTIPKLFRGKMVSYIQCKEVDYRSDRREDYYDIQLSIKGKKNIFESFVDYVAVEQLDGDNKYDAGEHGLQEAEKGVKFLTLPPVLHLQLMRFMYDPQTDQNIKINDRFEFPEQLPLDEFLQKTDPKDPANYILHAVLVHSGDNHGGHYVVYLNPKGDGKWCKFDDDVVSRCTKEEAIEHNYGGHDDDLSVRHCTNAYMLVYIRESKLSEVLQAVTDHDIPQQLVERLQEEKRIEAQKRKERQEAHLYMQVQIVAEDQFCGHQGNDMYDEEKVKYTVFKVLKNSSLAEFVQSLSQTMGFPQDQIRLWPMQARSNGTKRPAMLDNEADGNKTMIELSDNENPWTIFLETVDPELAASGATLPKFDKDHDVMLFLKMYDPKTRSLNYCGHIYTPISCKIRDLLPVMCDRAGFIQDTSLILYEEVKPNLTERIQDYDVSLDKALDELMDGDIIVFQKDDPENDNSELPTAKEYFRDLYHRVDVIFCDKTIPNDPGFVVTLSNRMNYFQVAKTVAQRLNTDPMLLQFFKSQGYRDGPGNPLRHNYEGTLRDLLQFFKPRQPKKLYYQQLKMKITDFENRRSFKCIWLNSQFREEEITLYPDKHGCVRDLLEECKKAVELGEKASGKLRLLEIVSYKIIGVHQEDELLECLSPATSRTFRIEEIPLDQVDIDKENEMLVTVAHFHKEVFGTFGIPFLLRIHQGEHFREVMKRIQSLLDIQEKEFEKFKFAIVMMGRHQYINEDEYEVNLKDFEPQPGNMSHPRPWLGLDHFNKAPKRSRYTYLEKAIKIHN

With `CC(CC(=O)N1CCC(O)(Cn2cnc3sccc3c2=O)CC1)c1ccccc1` (stereo not drawn) [Compound I-1, 3-((4-hydroxy-1-(3-phenylbutanoyl)piperidin-4-yl)methyl)thieno[2,3-d]pyrimidin-4(3H)-one], the IC50 was 300 to 1000 nM. In the case of `CC(CC(=O)N1CCC(O)(Cn2cnc3sc4c(c3c2=O)CCCC4)CC1)c1ccccc1` (stereo not drawn) [Compound I-2, 3-((4-hydroxy-1-(3-phenylbutanoyl)piperidin-4-yl)methyl)-5,6,7,8-tetrahydrobenzo[4,5]thieno[2,3-d]pyrimidin-4(3H)-one] it was greater than 10000 nM; in that of `CC(CC(=O)N1CCC(O)(Cn2cnc3sc4c(c3c2=O)CCC4)CC1)c1ccccc1` (stereo not drawn) [Compound I-3, 3-((4-hydroxy-1-(3-phenylbutanoyl)piperidin-4-yl)methyl)-3,5,6,7-tetrahydro-4H-cyclopenta[4,5]thieno[2,3-d]pyrimidin-4-one], 1000 to 10000 nM; in that of `CCCc1cc2c(=O)n(CC3(O)CCN(C(=O)CC(C)c4ccccc4)CC3)cnc2s1` (stereo not drawn) [Compound I-4, 3-((4-hydroxy-1-(3-phenylbutanoyl)piperidin-4-yl)methyl)-6-propylthieno[2,3-d]pyrimidin-4(3H)-one], 300 to 1000 nM. With `CCC(CC(=O)N1CCC(O)(Cn2cnc3sccc3c2=O)CC1)c1ccccc1` (stereo not drawn) [Compound I-5, 3-((4-hydroxy-1-(3-phenylpentanoyl)piperidin-4-yl)methyl)thieno[2,3-d]pyrimidin-4(3H)-one], the IC50 lay in the range of 1000 to 10000 nM. As to `Cc1cc2c(=O)n(CC3(O)CCN(C(=O)CC(C)c4ccccc4)CC3)cnc2s1` (stereo not drawn) [Compound I-6, 3-((4-hydroxy-1-(3-phenylbutanoyl)piperidin-4-yl)methyl)-6-methylthieno[2,3-d]pyrimidin-4(3H)-one], the IC50 is less than 300 nM. In the case of `CCc1cc2c(=O)n(CC3(O)CCN(C(=O)CC(C)c4ccccc4)CC3)cnc2s1` (stereo not drawn) [Compound I-7, 6-ethyl-3-((4-hydroxy-1-(3-phenylbutanoyl)piperidin-4-yl)methyl)thieno[2,3-d]pyrimidin-4(3H)-one] it was less than 300 nM; in that of `Cc1sc2ncn(CC3(O)CCN(C(=O)CC(C)c4ccccc4)CC3)c(=O)c2c1C` (stereo not drawn) [Compound I-8, 3-((4-hydroxy-1-(3-phenylbutanoyl)piperidin-4-yl)methyl)-5,6-dimethylthieno[2,3-d]pyrimidin-4(3H)-one], greater than 10000 nM; in that of `COc1ccc(C(=O)N2CCC(O)(Cn3cnc4c(-c5ccc(F)cc5)csc4c3=O)CC2)cc1` [Compound I-9, 7-(4-fluorophenyl)-3-((4-hydroxy-1-(4-methoxybenzoyl)piperidin-4-yl)methyl)thieno[3,2-d]pyrimidin-4(3H)-one], 1000 to 10000 nM. As for `O=C(c1ccccc1)N1CCC(O)(Cn2cnc3c(-c4ccc(F)cc4)csc3c2=O)CC1` [Compound I-10, 3-((1-benzoyl-4-hydroxypiperidin-4-yl)methyl)-7-(4-fluorophenyl)thieno[3,2-d]pyrimidin-4(3H)-one], the IC50 was in the range of 1000 to 10000 nM.

Regarding `CN(C)C/C=C/C(=O)NCCCCC(=O)N1CCC(O)(Cn2cnc3c(-c4ccc(F)cc4)csc3c2=O)CC1` [Compound I-11, (E)-4-(dimethylamino)-N-(5-(4-((7-(4-fluorophenyl)-4-oxothieno[3,2-d]pyrimidin-3(4H)-yl)methyl)-4-hydroxypiperidin-1-yl)-5-oxopentyl)but-2-enamide], the IC50 lay within 1000 to 10000 nM. With `CN(C)C/C=C/C(=O)NCCCC(=O)N1CCC(O)(Cn2cnc3c(-c4ccc(F)cc4)csc3c2=O)CC1` [Compound I-12, (E)-4-(dimethylamino)-N-(4-(4-((7-(4-fluorophenyl)-4-oxothieno[3,2-d]pyrimidin-3(4H)-yl)methyl)-4-hydroxypiperidin-1-yl)-4-oxobutyl)but-2-enamide], the IC50 lay within 1000 to 10000 nM.
